One experiment has as its system SKBR-3. The experiment is described as follows: Growth inhibition by MTT, SKBR-3 breast cancer cells. It is filed as cell-based, Human. The settings on record: Homo sapiens, read-out: IC50 SKBR-3. How it is done:
(§1) Growth inhibitory effects of NATURA and other agents on human cancer cells were determined by standard MTT (3-(4,5-dimethylthiazol-2-yl)-2,5-diphenyltetrazolium bromide Test) as described previously. Briefly, cancer cells grown exponentially were aliquoted into 96-well plates at a density of 5000 cells/200 μl per well in RPMI 1640 medium containing 10% FBS overnight. The cells in the plates were then exposed to series of dilution of indicated agent. After 72 h of incubation, 100 μl of the medium was removed from each of the wells and 50 μl of a 1 mg/ml solution of 3-(4,5-dimethylthiazol-2-yl)-2,5-diphenyltetrazolium bromide (MTT) was added to each well and the cells were incubated for additional 4 h. 200 μl of solution of 0.04 N HCl-isopropanol was added to each well to dissolve the black fromazan participates, and absorbance at 540 nm was measured on a 96-Well.

A further experiment deals with LOVO. The experiment is described as follows: Growth inhibition by MTT, LOVO colon cancer cells. Type of experiment: cell-based, Human. The settings on record: Homo sapiens, LoVo; MTT, 72 h exposure; read-out: IC50 LOVO. How it is done:
as §1

In a further experiment the test system is DLD-1. The experiment can be described thus: Growth inhibition by MTT, DLD-1 colon cancer cells. It is filed as cell-based, Human. Particulars: Homo sapiens, DLD-1, 72 h exposure. How it is done: as §1
as §1, with “FIGS. 3-5 show the anticancer affects” for “Growth inhibitory effects”, “NATURA in MCF-7 breast cancer cells, DLD-1 colon cancer cells,” for “NATURA”, “LNCaP hormone-dependent prostate” for “other agents on human”, “cells. The” for “cells were determined by standard MTT (3-(4,5-dimethylthiazol-2-yl)-2,5-diphenyltetrazolium bromide Test) as described previously. Briefly,”, “fetal bovine serum (FBS)” for “FBS”, “96-Well Microplate Reader. Each experiment was repeated at least three times.” for “96-Well.”

The next experiment concerns PC-3. The experiment is described as follows: Growth inhibition by MTT, PC-3 prostate cancer cells. Type of experiment: cell-based, Human. Particulars: Homo sapiens, PC-3; MTT, 72 h exposure; read-out: IC50 PC-3. How it is done: as §1
Another experiment concerns DU145. The experiment can be described thus: Growth inhibition by MTT, DU145 prostate cancer cells. Type of experiment: cell-based, Human. The settings on record: Homo sapiens, DU-145; MTT, 72 h exposure; read-out: IC50 DU145. How it is done:
as §1

For another experiment, the system named is cdk4/6. The experiment can be described thus: cdk4/6 activity immuno-precipitated from treated LNCaP cells. Type of experiment: cell-based, Human. Here is the method:
(§2) Assay for cyclin dependent kinase activity: HUVEC and LNCaP cells were cultured in EMB (endothelial cell basal medium) and RPMI 1640 containing 10% FBS, respectively. The cells grown exponentially were exposed to indicated concentrations of meisoindigo or NATURA for 24 hr. The cells were harvested, washed, and total proteins extracted as described previously. One hundred μg of the proteins were immuno-precipitated using antibodies against cdk2, cdk4/6, PKC, ERK2 or cyclin D1 overnight at 4° C. in the presence of a cocktail of protease inhibitors. The immuno-precipitates were washed 4 times with protein extraction buffer and once with kinase assay buffer, and reacted with 75 μg/ml histone H1 in the presence of [γ-^32P]-ATP (2.5 μCi/10 μM). The phosphorylated histone H1 (represent cdk activity) was measured by scintillation counting or by SDS-polyacrylaimde gel electrophoresis. The direct inhibitory effects of Meisoindigo and NATURA were also measured by reaction of immuno-purified specific enzyme from untreated cells directly with the Meisoindigo or NATURA.
as §2, with “HUVEC” for “Assay for cyclin dependent kinase activity: HUVEC”, “either cdk4/6” for “cdk2, cdk4/6, PKC, ERK2”, “[γ-^32P]-ATP.” for “[γ-^32P]-ATP (2.5 μCi/10 μM).”, “counting.” for “counting or by SDS-polyacrylaimde gel electrophoresis. The direct inhibitory effects of Meisoindigo and NATURA were also measured by reaction of immuno-purified specific enzyme from untreated cells directly with the Meisoindigo or NATURA.”

The test system of a further experiment is LNCaP cells. The experiment is described as follows: DNA fragmentation (ladder) in LNCaP cells. It is filed as cell-based, Human. Particulars: 15 μM, 2 days. Here is the method: Once cancer cells have been arrested at G1 phase by either derivatives of the invention, such as, Meisiondigo or NATURA, they will either differentiate or enter apoptosis. […] FIG. 8 confirms that Meisoindigo and NATURA cause apoptosis. The formation of DNA fragmentation (ladder) were measured, an indicator of cell apoptosis, in both LNCaP prostate and N2A neuroblastoma cells. To do this LNCaP and neuroblastoma N2A cells at exponential growth phase were exposed to indicated concentrations of Meisoindigo or NATURA or Taxol (20 nM, as a positive control) for 2 days. The cells were harvested, washed and DNA extracted. Approximately 2 μg per lane of DNA were subjected to 2% agarose gel electrophoresis.
Induction of Apoptosis: As we mentioned previously that cancer cells probably have two options after arrest at G1 phase, i.e. differentiation or apoptosis. […] To confirm our hypothesis and earlier observations, we measured poly(ADP-ribose) polymerase (PARP) degradation and the formation of DNA fragmentation (ladder), indicators of cell apoptosis, in both LNCaP prostate and N2A neuroblastoma cells. LNCaP and neuroblastoma N2A cells at exponential growth phase were exposed to indicated concentrations of Meisoindigo or NATURA or Taxol (20 nM, as a positive control) for 2 days. The cells were harvested, washed and DNA extracted. […]

In experiment [1] the test system is poly(ADP-ribose) polymerase (PARP). The experiment can be described thus: PARP degradation by Western blot in N2A cells. It is filed as cell-based, Mouse. Particulars: 24 hours. How it is done:
Induction of Apoptosis: As we mentioned previously that cancer cells probably have two options after arrest at G1 phase, i.e. differentiation or apoptosis. […] The cells were harvested, washed and DNA extracted. Approximately 2 μg per lane of DNA were subjected to 2% agarose gel electrophoresis. […] The cells were harvested, washed, and total proteins extracted for determination of PARP degradation by Western blotting as described previously. Upper panels (A & B) are imagines from ECL films, and lower panels (A′ & B′) are densities of the corresponding bands measured by an Imagine Densitometer (expressed as the percent of control).
(In general: Immunoblotting shows a protein as a band on a membrane.)

The subject of the next experiment is Walker 256. The experiment is described as follows: Anticancer activity against Walker 256 sarcoma.
[2] abbreviates: 15 μM, LNCaP cells exposed 24 h.
Setting [3] is: Walker 256, rat, oral, Indirubin 100 × 9, Meisoindigo 106 × 9 mg/kgxd.

Structures are written as SMILES. Read-outs that look alike come from different tables or passages of the source.

Protocol for Walker 256: Anticancer activity against Walker 256: Wistar rats with body weights between 50 to 55 grams, were randomly divided into several groups, ten of each, respectively. Approximately 2×10^6 of the Walker sarcoma cells were transplanted into a Wistar rat. Twenty-four hours after the transplantation, equal molar dosage (0.384 mM/kg) of NATURA or other sugar derivatives were given orally for 10 days. The animals in the control group were given 0.1 ml saline (drug vehicle, negative control) for the same periods of time as treated group. Twenty-four hours after the last administration, the animals were sacrificed and tumors were removed and weighed.
Briefly, C57 mice, body weight between 18 to 22 grams, and rat, body weight between 50 to 55 grams, were randomly divided into several groups, ten of each, respectively. Approximately 2×10^6 of Lewis cancer cells or Walker sarcoma cells were transplanted into mice or rat. […] The animals in the control group were given 0.1 ml saline (drug vehicle, negative control) for the same periods of time as treated group. The animals at end of the treatment were sacrificed and tumors were removed and weighed.
In order to assess the anticancer activities of NATURA and other sugar derivatives, Wistard rats transplanted with W256 were given the same molar of the tested compounds (0.384 mM/kg) for the same period of time (10 days).

In general, IC50 refers to the concentration that gives 50% inhibition. In the case of `CN1C(=O)/C(=C2/C(=O)Nc3ccccc32)c2ccccc21` [Meisoindigo], the IC50 in the experiment on SKBR-3 (SK-BR-3, 72 h) was determined as 2.17 ± 0.17 µM; in the experiment on LOVO, 5.76 ± 0.72 µM; in the experiment with DLD-1, 2.15 ± 0.17 µM; with PC-3, 3.26 ± 0.51 µM; with DU145, 8.31 ± 0.93 µM. Also, the “inhibition of D cyclins mediated cdk4/6 enzyme activity” value in the experiment with cdk4/6 (5.0 μM, LNCaP cells, 24 h) is reported as “Over 56%”; with cdk4/6 (setting [2]), “complete inhibition”. Besides, the DNA fragmentation entry in the experiment with LNCaP cells was “significant DNA fragmentation”. In [1], the PARP protein degradation result was “strong induction”. The “Inhibition (%)” value in the experiment on Walker 256 (setting [3]) amounted to 71.6 ± 3.1%. Also, the “Tumor Size X ± SD” value in the experiment on Walker 256 (setting [3]) amounted to 2.10 ± 0.17.

For the compound `CC(=O)OC1COC(N2C(=O)/C(=C3/C(=O)Nc4ccccc43)c3ccccc32)C(OC(C)=O)C1OC(C)=O` [NATURA, 1-(β-D-O-Triacetyl-xylopyranosyl)-isoindigo], the 50% inhibitory concentration (IC50) came to 1.71 ± 0.14 µM with SKBR-3 (SK-BR-3, MTT, 72 h exposure); 4.31 ± 0.59 µM with LOVO; 1.64 ± 0.181 µM in the experiment with DLD-1; 2.41 ± 0.39 µM in the experiment on PC-3; 6.92 ± 0.73 µM with DU145. In addition, the “inhibition of D cyclins mediated cdk4/6 enzyme activity” value was “Over 56%” with cdk4/6 (5.0 μM, LNCaP cells, 24 h) and “complete inhibition” with cdk4/6 (setting [2]). In the experiment on cdk4/6 (5 μM, LNCaP cells, 24 hours), the “activity on cdk4 compared with cdk2” value was “slight stronger activity”. Besides, in the experiment with cdk4/6 (5.0 μm, FIG. 7), the “inhibitory affect on cdk4/6 activity compared with same concentration of meisoindigo” value is “greater inhibitory affect”. Further, the DNA fragmentation result in the experiment on LNCaP cells is listed as “significant DNA fragmentation”. For the same compound, in experiment [1], the PARP protein degradation result is “strong induction”. Moreover, the “Percent of Inhibition against Walker 256” value with Walker 256 (Wistar rats, 0.384 mM/kg orally for 10 days) turned out to be 77%; in the experiment on Walker 256 (Wistar rats, 0.384 mM/kg orally for 10 days; listed as Xyl-Ac*NATURA)) it was 77.5%.

For the origin of these results see US6933315B2, “Derivatives of isoindigo, indigo and indirubin and methods of treating cancer” (priority 2001, dated 2005).
